Where two headings read alike, the source gives them in different places.
Columns and labels:
[1] = system: isolated working rat heart; assay: Glucose oxidation in isolated perfused working rat heart ([U-14C]glucose, 14CO2 production); details: isolated working rat heart, read-out: Glucose Oxidation (% above control); for activation at 100 µM: screening concentration 100 μM
Method: Rat hearts were cannulated for isolated working heart 60 minute aerobic perfusions as described in J Pharmacol Exp Ther. 1993; 264:135-144, the entire disclosure of which is incorporated herein by reference.
Male Sprague-Dawley rats (0.3-0.35 kg) were anesthetized with pentobarbital sodium (60 mg/kg IP) and hearts were quickly excised, the aorta was cannulated and a retrograde perfusion at 37° C. was initiated at a hydrostatic pressure of 60 mm Hg. Hearts were trimmed of excess tissue, and the pulmonary artery and the opening to the left atrium were then cannulated. After 15 min of Langendorff perfusion, hearts were switched to the working mode by clamping the aortic inflow line from the Langendorff reservoir and opening the left atrial inflow line. The perfusate was delivered from an oxygenator into the left atrium at a constant preload pressure of 11 mm Hg. Perfusate was ejected from spontaneously beating hearts into a compliance chamber (containing 1 ml of air) and into the aortic outflow line. The afterload was set at a hydrostatic pressure of 80 mm Hg. All working hearts were perfused with Krebs'-Henseleit solution containing calcium 2.5 mmol/L, glucose 5.5 mmol/L, 3% bovine serum albumin (fatty acid free, initial fractionation by heat shock, Sigma), and with 1.2 mmol/L palmitate. Palmitate was bound to the albumin as described in J Bio Chem. 1992; 267:3825-3831, the entire disclosure of which is incorporated herein by reference.
The perfusate was recirculated, and pH was adjusted to 7.4 by bubbling with a mixture containing 95% O2 and 5% CO2.
Spontaneously beating hearts were used in all perfusions. Heart rate and aortic pressure were measured with a Biopac Systems Inc. blood pressure transducer connected to the aortic outflow line. Cardiac output and aortic flow were measured with Transonic T206 ultrasonic flow probes in the preload and afterload lines, respectively. Coronary flow was calculated as the difference between cardiac output and aortic flow. Cardiac work was calculated as the product of systolic pressure and cardiac output.
Measurement of Glucose Oxidation: Glucose oxidation was measured simultaneously by perfusing hearts with [U-^14C] glucose according to the procedures discussed in Saddik M, et al., J Bio Chem. 1992; 267:3825-3831. The entire disclosure of this reference is incorporated herein by reference. The total myocardial ^14CO2 production was determined at 10-min intervals from the 60-min aerobic period. Glucose oxidation rates were determined by quantitative measurement of ^14CO2 production as described in Barbour RL, et al., Biochemistry. 1984; […]. The entire disclosure of this reference is incorporated herein by reference. ^14CO2 production for the control group were compared with the ^14CO2 production for the group treated with cyclopropanecarboxylic acid, 2-[2-(2-methoxy-ethoxy)-ethoxy]-ethyl ester. Results are shown on FIG. 1 and TABLE 2A.
The procedure of Example A for was followed except that cyclobutanecarboxylic acid, 2-[2-(2-methoxy-ethoxy)-ethoxy]-ethyl ester in 1 μM, 10 μM, 100 μM and 1000 μM amounts was added to the buffer in place of the cyclopropanecarboxylic acid, 2-[2-(2-methoxy-ethoxy)-ethoxy]-ethyl ester. The results are illustrated in FIG. 2 and TABLE 2A.
The procedure of Example A was followed except that cyclopropanecarboxylic acid, 2-isopropoxy-ethyl ester in 1 μM, 10 μM, 100 μM and 1000 μM amounts was added to the buffer in place of the cyclopropanecarboxylic acid, 2-[2-(2-methoxy-ethoxy)-ethoxy]-ethyl ester. The results are illustrated in FIG. 3 and TABLE 2A.
The procedure of Example A was followed except that various cyclobutanecarboxylic acid derivatives, cyclopropanecarboxylic acid derivatives and cyclobutanecarboxylic acid in the amounts of 100 μM or 1000 μM was added to the buffer in place of the cyclopropanecarboxylic acid, 2-[2-(2-methoxy-ethoxy)-ethoxy]-ethyl ester.

[2] = cited from earlier work

Structure (SMILES)	activation at 100 µM ([1]; Table 2B)	activation at 100 µM ([1]; Table 2A)	further results
CCOCCOC(=O)C1(C)CC1(Cl)Cl (stereo not shown) [Compound 33MM086, 2,2-Dichloro-1-methyl-cyclopropanecarboxylic acid 2-ethoxy-ethyl ester]	117%		
CCOCCOC(=O)C1CC1C (stereo not drawn) [Compound 32MM085, Trans-2-methyl-cyclopropanecarboylic acid 2-ethoxy-ethyl ester]	150%		
CC(NC(=O)C1CC1)C(=O)O (stereo not shown) [Compound 5MM058, 2-(Cyclopropanecarbonyl-amino)-propionic acid]			activation at 1000 µM ([1]; Table 2A, screening concentration 1000 μM): 40%
O=C(OCCOCCOCc1ccccc1)C1CCC1 [Compound 6MM059, Cyclobutanecarboxylic acid 2-(2-benzyloxy-ethoxy)-ethyl ester]		68%	
COC(=O)CSC(=O)C1CC1 [Compound 37MM090, Cyclopropanecarbonylsulfanyl-acetic acid methyl ester]	251%		
CC(C)OCCNC(=O)C1CC1 [Compound 24MM077, Cyclopropanecarboxylic acid (2-isopropoxy-ethyl)-amide]		217%	
COCCOCCOCCOC(=O)C1CCC1 [Compound 3MM056, Cyclobutanecarboxylic Acid, 2-[2-(2-methoxy-ethoxy)-ethoxy]-ethyl ester]		54%	
O=C(O)C(Cl)Cl [DCA, dichloroacetate]			biological half-life (in words) [2]: short biological half-life
CCCCOCCOCCOC(=O)C1CCC1 [Compound 7MM060, Cyclobutanecarboxylic acid, 2-(2-butoxy-ethoxy)-ethyl ester]		65%	
O=C(OCCN1CCOCC1)C1CC1 [Compound 39MM092, Cyclopropanecarboxylic acid 2-morpholin-4-yl-ethyl ester]	233%		
